The values that follow come from patent US7115608B2, “Pyridinone and pyridinethione derivatives having HIV inhibiting properties” (Centre National de la Recherche Schentifique, priority 2000, dated 2006).

pIC50: −log10 of the molar value. Read-outs that look alike come from different tables or passages of the source. Some results are limits rather than exact numbers.

Data set [1] has as its system HIV-1. Particulars: for SI: selectivity index, ratio of CC50 to IC50; for pIC50: dose achieving 50% protection of HIV-infected MT-4 cells, MTT, OD 540 nm.
Description: (§1) A rapid, sensitive and automated assay procedure was used for the in vitro evaluation of anti-HIV agents. […] Inhibition of the HIV-induced cytopathic effect was used as the end point. The viability of both HIV- and mock-infected cells was assessed spectrophotometrically via the in situ reduction of 3-(4,5-dimethylthiazol-2-yl)-2,5-diphenyltetrazolium bromide (MTT). […] The percent protection achieved by the compound in HIV-infected cells was calculated by the following formula:
(§2) [formula] expressed in %, whereby (ODT)HIV is the optical density measured with a given concentration of the test compound in HIV-infected cells; (ODC)HIV is the optical density measured for the control untreated HIV-infected cells; (ODC)MOCK is the optical density measured for the control untreated mock-infected cells; all optical density values were determined at 540 nm. […] The ratio of CC50 to IC50 was defined as the selectivity index (SI).
Data set [2] deals with HIV-1. The data set can be described thus: microbe, parasite or virus in culture. Particulars: Human immunodeficiency virus 1, MT4.
Description: as §1, §2
The nature of data set [3]: Cytotoxicity in mock-infected MT-4 cells (MTT). Format: cell-based. Particulars: human, mock-infected MT-4 cells, concentration reducing absorbance of mock-infected MT-4 control by 50%.
Another data set relates to mock-infected MT-4 cells. Nature of the data set: Cytotoxicity in mock-infected MT-4 cells (MTT). Format: cell-based. The note with it: concentration reducing absorbance of mock-infected MT-4 control by 50%.

Take `CCc1c(C)[nH]c(=O)c(I)c1Oc1cc(Br)cc(/C=C/C#N)c1` [compound 470]: the SI in the data set with HIV-1 [1] is on record as 12589. The same compound gave a pIC50 in the data set with HIV-1 [2] of 9.00. Also, in data set [3], half-maximal cytotoxicity (CC50) was put at 13000 nM.

On to `CCOCc1c(C)[nH]c(=O)c(I)c1Sc1cc(C)cc(C)c1` [compound 86], for which the melting point was 220 to 222 °C. Moreover, the SI in the data set on HIV-1 [1] was more than 31623. The compound further had a pIC50 in the data set with HIV-1 [2] of 8.49. Besides, the CC50 in data set [3] is more than 100000 nM.

Turning to `Cc1cc(C)cc(Sc2c(CO)c(C)[nH]c(=O)c2I)c1` [compound 61], the melting point was 240 °C.

For the compound `CCc1c(C)[nH]c(=O)c(I)c1Oc1cc(I)cc(CC#N)c1` [compound 426, [3-(5-ethyl-3-iodo-6-methyl-2-oxo-1,2-dihydro-pyridin-4-yloxy)-5-iodo-phenyl]-acetonitrile], the SI in the data set on HIV-1 [1] is 39811. The compound further had a pIC50 in the data set on HIV-1 [2] of 8.80. The CC50 in data set [3] worked out at 63000 nM.

As for `CCc1c(C)[nH]c(=O)c(CC)c1Oc1cc(C)cc(C)c1` [compound 231, 4-(3,5-dimethylphenoxy)-3,5-diethyl-6-methyl-2(1H)-pyridinone], the SI in the data set with HIV-1 [1] was 3162. In addition, the pIC50 with HIV-1 [2] is 8.49. For the same compound, the CC50 in data set [3] came to 10000 nM.

As for `CCc1c(C)[nH]c(=O)c(I)c1[S+]([O-])c1cc(C)cc(C)c1` (stereo not drawn) [compound 108], the SI with HIV-1 [1] is reported as 19953. For the same compound, the pIC50 in the data set on HIV-1 [2] was 8.60. The compound also yielded a CC50 in data set [3] of 50000 nM.

As to `C=Cc1c(Oc2cc(C)cc(C)c2)c(CC)c(C)[nH]c1=O` [compound 234, 4-(3,5-dimethylphenoxy)-3-ethenyl-5-ethyl-6-methyl-2(1H)-pyridinone], the SI in the data set on HIV-1 [1] is given as 5012. The compound further gave a pIC50 in the data set on HIV-1 [2] of 8.70. In data set [3], this compound came in with a CC50 of 10000 nM.

`Cc1cc(C)cc(Oc2c(CCl)c(C)[nH]c(=O)c2I)c1` [compound 125, 5-(chloromethyl)-4-(3,5-dimethylphenoxy)-3-iodo-6-methyl-2(1H)-pyridinone]: the melting point was in the range of 256 to 258 °C.

Take `Cc1cc(C)cc(Sc2c(CN3CCOCC3)c(C)[nH]c(=O)c2I)c1` [compound 43, 4-[(3,5-dimethylphenyl)-thio]-3-iodo-6-methyl-5-morpholinomethyl-1H-pyridin-2-one]: the SI with HIV-1 [1] was 10000. Also, in the data set on HIV-1 [2], the pIC50 is 9.00. Besides, in data set [3], the CC50 turned out to be 10000 nM.

Regarding `CCOCc1c(C)[nH]c(=O)c(Br)c1Sc1cc(C)cc(C)c1` [compound 85], the melting point lay in the range of 183 to 184 °C. Further, the SI with HIV-1 [1] is reported as more than 31623. In the data set on HIV-1 [2], this compound gave a pIC50 of 8.49. This compound also registered a CC50 in data set [3] of more than 100000 nM.

For `CCSCc1c(C)[nH]c(=O)c(I)c1Sc1cc(C)cc(C)c1` [compound 45], the SI in the data set on HIV-1 [1] is recorded as more than 31623. The compound further showed a pIC50 in the data set on HIV-1 [2] of 8.49. The CC50 in data set [3] is more than 100000 nM.

On to `Cc1cc(C)cc(Oc2c(CCCc3ccccc3)c(C)[nH]c(=O)c2I)c1` [compound 547, 4-(3,5-dimethylphenoxy)-3-iodo-6-methyl-5-(3-phenyl-propyl)-1H-pyridin-2-one], for which, in the data set on HIV-1 [1], the SI is more than 15849. For the same compound, the pIC50 in the data set on HIV-1 [2] was 8.20. The compound further returned a CC50 in data set [3] of more than 100000 nM.

The compound `CCOCc1c(C)[nH]c(=O)c(I)c1Oc1cc(C)cc(C)c1` [compound 255, 4-(3,5-dimethylphenoxy)-5-(ethoxymethyl)-3-iodo-6-methyl-2(1H)-pyridinone] registered a melting point of 234 to 236 °C. The SI in the data set on HIV-1 [1] was more than 15849. In the data set with HIV-1 [2], this compound gave a pIC50 of 9.22. In data set [3], this compound came in with a CC50 of more than 10000 nM.

In turn, `CCc1c(C=O)[nH]c(=O)c(I)c1Oc1cc(C)cc(C)c1` [compound 159, 4-(3,5-dimethylphenoxy)-3-ethyl-1,6-dihydro-5-iodo-6-oxo-2-pyridinecarboxaldehyde] returned a melting point of 158 °C.

With `Cc1cc(C)cc(Oc2c(CO)c(C)[nH]c(=O)c2I)c1` [compound 257, 4-(3,5-dimethylphenoxy)-5-(hydroxymethyl)-3-iodo-6-methyl-2(1H)-pyridinone], in the data set on HIV-1 [1], the SI is more than 6310. For the same compound, the pIC50 in the data set with HIV-1 [2] is 8.30. In data set [3], this compound gave a CC50 of more than 32000 nM.

Take `CCc1c(CO)[nH]c(=O)c(I)c1Oc1cc(C)cc(C)c1` [compound 133, 4-(3,5-dimethylphenoxy)-5-ethyl-6-(hydroxymethyl)-3-iodo-2(1H)-pyridinone]: the SI with HIV-1 [1] is recorded as more than 6310. The compound also gave a pIC50 with HIV-1 [2] of 8.80. In data set [3], this compound displayed a CC50 of more than 10000 nM.

As to `Cc1cc(C)cc(Sc2c(Cn3cccc3)c(C)[nH]c(=O)c2I)c1` [compound 618], in the data set on HIV-1 [1], the pIC50 was 8.70 and the SI came out at 25119. The compound further had a CC50 with mock-infected MT-4 cells of 50000 nM.

Turning to `CCSCc1c(C)[nH]c(=O)c(I)c1Oc1cc(C)cc(C)c1` [compound 124], in the data set with HIV-1 [1], the pIC50 was 8.89 and the SI is listed as more than 7943. In addition, the CC50 with mock-infected MT-4 cells was more than 10000 nM.

For `CCc1c(C)[nH]c(=O)c(I)c1Oc1cccc(CO)c1` [compound 322], in the data set with HIV-1 [1], the pIC50 is 8.20 and the SI was more than 15849. Further, the CC50 with mock-infected MT-4 cells was more than 100000 nM.

`Cc1cc(C)cc(Oc2c(CCCOCc3ccccc3)c(C)[nH]c(=O)c2I)c1` [compound 250]: in the data set on HIV-1 [1], the pIC50 is 8.30 and the SI is listed as 5012. In the data set with mock-infected MT-4 cells, this compound displayed a CC50 of 25000 nM.

For `Cc1cc(C)cc(Oc2c(CSCc3csc(C)n3)c(C)[nH]c(=O)c2I)c1` [compound 483, 4-(3,5-dimethylphenoxy)-3-iodo-6-methyl-5-[2-methylthiazol-4-ylmethylsulfanylmethyl)-1H-pyridin-2-one], the SI in the data set with HIV-1 [1] is recorded as more than 100000. The compound also had a pIC50 in the data set on HIV-1 [2] of 9.00. In data set [3], the CC50 was more than 100000 nM.

Regarding `Cc1cc(C)cc(Sc2c(Cn3cccn3)c(C)[nH]c(=O)c2I)c1` [compound 589], in the data set on HIV-1 [1], the pIC50 was 8.89 and the SI is more than 7943. This compound also returned a CC50 with mock-infected MT-4 cells of more than 10000 nM.

Regarding `Cc1cc(C)cc(Oc2c(COCc3ccsc3)c(C)[nH]c(=O)c2I)c1` [compound 244], in the data set with HIV-1 [1], the pIC50 is 8.40 and the SI was more than 25119. This compound also showed a CC50 with mock-infected MT-4 cells of more than 100000 nM.

Consider `Cc1cc(C)cc(Oc2c(Cn3cncn3)c(C)[nH]c(=O)c2I)c1` [compound 574], for which, in the data set with HIV-1 [1], the pIC50 was 8.70 and the SI was more than 50119. This compound displayed a CC50 in the data set on mock-infected MT-4 cells of more than 100000 nM.

With `CCc1c(C)[nH]c(=O)c(C(F)(F)F)c1Oc1cc(C)cc(C)c1` [compound 409], in the data set on HIV-1 [1], the pIC50 was 8.49 and the SI amounted to 12589. In the data set with mock-infected MT-4 cells, this compound gave a CC50 of 40000 nM.

On to `CC(=O)N1CCN(Cc2c(C)[nH]c(=O)c(I)c2Oc2cc(C)cc(C)c2)CC1` [compound 701], for which, in the data set on HIV-1 [1], the pIC50 is 8.00 and the SI came out at 6310. The compound further yielded a CC50 with mock-infected MT-4 cells of 63000 nM.

As for `Cc1cc(C)cc(Oc2c(CSCc3ccccc3)c(C)[nH]c(=O)c2I)c1` [compound 92], in the data set on HIV-1 [1], the pIC50 is 8.20 and the SI was more than 5012. Further, in the data set with mock-infected MT-4 cells, the CC50 is more than 32000 nM.

In the case of `CCOC(=O)c1c(Oc2cc(C)cc(C)c2)c(CC)c(C)[nH]c1=O` [compound 324], in the data set with HIV-1 [1], the pIC50 was 8.30 and the SI turned out to be 6310. The compound also gave a CC50 with mock-infected MT-4 cells of 32000 nM.

Regarding `CCc1c(C)[nH]c(=O)c(I)c1Sc1cccc(C)c1` [compound 88], in the data set with HIV-1 [1], the pIC50 was 8.60 and the SI is on record as more than 39811. In the data set with mock-infected MT-4 cells, the 50% cytotoxic concentration (CC50) is more than 100000 nM.
